Test results as given in US20140154730A1, “METHOD FOR STABILIZATION OF FLUID BIOLOGICAL SAMPLES” (DENATOR AB, priority 2011, published 2014).

Key:
[1] = Effect of different drying conditions on oseltamivir metabolism in spotted mouse blood; type: in vitro ADME; settings: mouse blood spiked 2000 ng/mL, 25 μL spot on Whatman FTA DMPK-C card
Method: (§1) FIG. 2 is a graph showing the amount of metabolized Oseltamivir in samples following different treatments. Samples A were treated according to standard procedures according to manufacturer's instructions, i.e. dried in open air for 2 hrs. Samples B were dried in closed bags with silica. Samples C were heat stabilized and subsequently dried in open air. Samples D were heat stabilized and subsequently dried in closed bags with silica. Values in FIG. 2 showing % oseltamivir metabolized are mean of three samples
as §1, with “Mouse blood was spiked with oseltamivir, 2000 ng/mL. 25 μL, blood was spotted on Whatman FTA DMPK-C card. Spots were allowed to dry under” for “FIG. 2 is a graph showing the amount of metabolized Oseltamivir in samples following”, “conditions, with our without prior heat stabilization.” for “treatments.”, “samples.” for “samples”

[2] = Stabilization of oseltamivir in mouse blood spotted on Whatman FTA DMPK-C card; type: in vitro ADME; settings: mouse blood spiked 500 ng/mL; for % oseltamivir metabolized: 25 μL spot on Whatman FTA DMPK-C card
Method: Oseltamivir is an oral prodrug of oseltamivir carboxylate, a selective inhibitor of viral neuramidase glycoprotein in influenza A. Oseltamivir undergoes fast bioconversion to oseltamivir carboxylate mostly by carboxylesterase 1 (CES 1).
Mouse blood was spiked with oseltamivir, 500 ng/mL. 25 μL, blood was spotted on Whatman FTA DMPK-C card. Spot were left to dry at room temperature, or heat treated using a Stabilizor™ System (Denator A B, Göteborg, Sweden) then left to dry.

## CCOC(=O)C1=C[C@@H](OC(CC)CC)[C@H](NC(C)=O)[C@@H](N)C1 [oseltamivir]
[1]; compared to drying in open air
  amount of metabolized oseltamivir, not heat stabilized, dried in closed bags with silica (Samples B): even higher amount of metabolized oseltamivir
[1]; compared to drying in open air (Samples C)
  amount of metabolized oseltamivir, heat stabilized, dried in closed bags with silica (Samples D): does not affect the amount of metabolized oseltamivir
[1]; mean of three samples
  amount of metabolized oseltamivir, heat stabilized samples (C, D) versus not heat stabilized: significant lower amount of metabolized oseltamivir
[2]; treatment: Drying at room temperature only
  % oseltamivir metabolized: 27%
[2]; treatment: Heating (Stabilizor System) then left to dry
  % oseltamivir metabolized: 3%
[2]; sample on paper, heat treated
  metabolism of the prodrug, heat treatment compared to only passive drying: strongly reduced the metabolism
